One may read the IC50 as the point on the concentration scale where inhibition reaches its midpoint.

The results in this text go back to patent publication US20230081426A1, “COMPOUNDS AND METHODS FOR KRAS MODULATION AND INDICATIONS THEREFOR” (Plexxikon Inc., priority 2020, published 2023).

The target of test [1] is T1, G12D-mutant human KRAS (amino acid residues 1-188) (Homo sapiens, UniProt P01116, G12D).
T1 construct: G12D or G12C-mutant human KRAS (amino acid residues 1-188) with FLAG tag; made in house; host or cells: E. coli
Nature of the test: KRAS Binding Disruption Assay (AlphaScreen; biotinylated KRpep-2d analogue or RAF1-RBD), G12D. The settings on record: KRAS G12D; geometric mean; read-out: KRAS GMean IC50 (uM) MUTATION: G12D. The method in brief: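 Compounds are titrated against 5-20 nM mutant KRAS and 5-20 nM of either a biotinylated KRpep-2d analogue or RAF1-RBD, incubated 1 h at 25° C. Disruption is detected as reduced Alpha signal after 1 h with donor and acceptor beads at 10 μg/mL.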
On the technique in general: In Alpha technology, singlet oxygen from a donor bead excites a nearby acceptor bead.

Test [2] concerns the target T2, G12V-mutant human KRAS (amino acid residues 1-188) (Homo sapiens, UniProt P01116, G12V).
T2 construct: G12V-mutant human KRAS (amino acid residues 1-188) with FLAG tag was purified from E. coli; made in house; host or cells: E. coli
Nature of the test: KRAS Binding Competition Assay (AlphaScreen; biotinylated KRpep-2d analogue), G12V. The settings on record: geometric mean, read-out: KRAS GMean IC50 (uM) MUTATION: G12V. Here is the method:
Compound binding disrupts the interaction of KRpep-2d with KRAS, leading to a decrease in Alpha signal.
All assay components were prepared in 20 mM HEPES (pH 7.5), 100 mM NaCl, 5 mM MgCl2, 0.01% Tween-20, and 0.01% BSA. Biotinylated analogues of KRpep-2d were custom synthesized. The binding competition assays were performed using 10 nM of mutant KRAS and 10 nM of biotinylated KRpep-2d analogue. 19 μL of KRAS protein and 4 μL of biotinylated KRpep-2d were added to the wells of a 384-well plate containing 1 μL of various concentrations of test compound or DMSO vehicle. 16 wells containing KRAS, biotinylated KRpep-2d, and 5% DMSO served as high controls. 16 wells containing KRAS only and 5% DMSO served as low controls. Binding reactions were incubated for 1 hour at 25° C., then Anti-Flag Acceptor and Streptavidin Donor Alpha beads were added at a final concentration of 10 μg/mL for an additional hour at room temperature. Alpha signal was read out on a Perkin Elmer Envision HTS instrument. The percentage inhibition at individual compound concentrations relative to high and low controls was calculated. The data were analyzed by using nonlinear regression to generate IC50 values.

As to `Oc1cc(-c2ccc3c(N4C[C@H]5CC[C@@H](C4)N5)nc(OC[C@@H]4CCCN4CCF)nc3c2)c2ccccc2c1` [P-0077, 4-(4-((1R,5S)-3,8-diazabicyclo[3.2.1]octan-3-yl)-2-(((S)-1-(2-fluoroethyl)pyrrolidin-2-yl)methoxy)quinazolin-7-yl)naphthalen-2-ol], the half-maximal inhibitory concentration (IC50) in test [1] lay in the range of 0.0001 to 10 µM; in test [2], 10 to 100 µM.

As for `CN1CCC[C@@H](COc2nc(N3C[C@H]4CC[C@@H](C3)N4)c3ccc(-c4cc(O)cc5ccccc45)cc3n2)C1` [P-0078, 4-(4-((1R,5S)-3,8-diazabicyclo[3.2.1]octan-3-yl)-2-(((R)-1-methylpiperidin-3-yl)methoxy)quinazolin-7-yl)naphthalen-2-ol], the IC50 lay in the range of 0.0001 to 10 µM in test [1] and 10 to 100 µM in test [2].

Turning to `CN1CCCC[C@H]1COc1nc(N2C[C@H]3CC[C@@H](C2)N3)c2ccc(-c3cc(O)cc4ccccc34)cc2n1` [P-0079, 4-(4-((1R,5S)-3,8-diazabicyclo[3.2.1]octan-3-yl)-2-(((S)-1-methylpiperidin-2-yl)methoxy)quinazolin-7-yl)naphthalen-2-ol], the half-maximal inhibitory concentration (IC50) in test [1] fell in the range of 0.0001 to 10 µM; in test [2], 10 to 100 µM.

As for `CCN1CCC[C@H]1COc1nc(N2C[C@H]3CC[C@@H](C2)N3)c2ccc(-c3cc(O)cc4ccccc34)cc2n1` [P-0080, 4-(4-((1R,5S)-3,8-diazabicyclo[3.2.1]octan-3-yl)-2-(((S)-1-ethylpyrrolidin-2-yl)methoxy)quinazolin-7-yl)naphthalen-2-ol], the values for the IC50 in test [1] and in test [2] were 0.0001 to 10 µM and 10 to 100 µM, respectively.

As for `Cc1cccc2cc(O)cc(-c3c(F)cc4c(N5C[C@H]6CC[C@@H](C5)N6)nc(OC[C@@H]5CCCN5C)nc4c3F)c12` [P-0087, 4-(4-((1R,5S)-3,8-diazabicyclo[3.2.1]octan-3-yl)-6,8-difluoro-2-(((S)-1-methylpyrrolidin-2-yl)methoxy)quinazolin-7-yl)-5-methylnaphthalen-2-ol], the IC50 in test [1] and in test [2] was 0.0001 to 10 µM in each case.

`CC(=O)OCC(=O)N1[C@@H]2CC[C@H]1CN(c1nc(OCC34CCCN3CCC4)nc3cc(-c4cc(O)cc5ccccc45)ccc13)C2` [P-0089, 2-((1R,5S)-3-(7-(3-hydroxynaphthalen-1-yl)-2-((tetrahydro-1H-pyrrolizin-7a(5H)-yl)methoxy)quinazolin-4-yl)-3,8-diazabicyclo[3.2.1]octan-8-yl)-2-oxoethyl acetate]: the IC50 in test [1] and in test [2] was 0.0001 to 10 µM in each case.

With `CCOC(=O)CNC(=O)N1[C@@H]2CC[C@H]1CN(c1nc(OCC34CCCN3CCC4)nc3cc(-c4cc(O)cc5ccccc45)ccc13)C2` [P-0090, ethyl ((1R,5S)-3-(7-(3-hydroxynaphthalen-1-yl)-2-((tetrahydro-1H-pyrrolizin-7a(5H)-yl)methoxy)quinazolin-4-yl)-3,8-diazabicyclo[3.2.1]octane-8-carbonyl)glycinate], the IC50 in test [1] and in test [2] was 0.0001 to 10 µM in each case.

In the case of `CC(=O)NCC(=O)N1[C@@H]2CC[C@H]1CN(c1nc(OCC34CCCN3CCC4)nc3cc(-c4cc(O)cc5ccccc45)ccc13)C2` [P-0091, N-(2-((1R,5S)-3-(7-(3-hydroxynaphthalen-1-yl)-2-((tetrahydro-1H-pyrrolizin-7a(5H)-yl)methoxy)quinazolin-4-yl)-3,8-diazabicyclo[3.2.1]octan-8-yl)-2-oxoethyl)acetamide], the IC50 in test [1] and in test [2] was 0.0001 to 10 µM in each case.

In the case of `O=C(CN1CCCS1(=O)=O)N1[C@@H]2CC[C@H]1CN(c1nc(OCC34CCCN3CCC4)nc3cc(-c4cc(O)cc5ccccc45)ccc13)C2` [P-0092, 2-(1,1-dioxidoisothiazolidin-2-yl)-1-((1R,5S)-3-(7-(3-hydroxynaphthalen-1-yl)-2-((tetrahydro-1H-pyrrolizin-7a(5H)-yl)methoxy)quinazolin-4-yl)-3,8-diazabicyclo[3.2.1]octan-8-yl)ethan-1-one], the IC50 in test [1] and in test [2] was 0.0001 to 10 µM each time.

For the molecule `NS(=O)(=O)CCC(=O)N1[C@@H]2CC[C@H]1CN(c1nc(OCC34CCCN3CCC4)nc3cc(-c4cc(O)cc5ccccc45)ccc13)C2` [P-0093, 3-((1R,5S)-3-(7-(3-hydroxynaphthalen-1-yl)-2-((tetrahydro-1H-pyrrolizin-7a(5H)-yl)methoxy)quinazolin-4-yl)-3,8-diazabicyclo[3.2.1]octan-8-yl)-3-oxopropane-1-sulfonamide], the IC50 in test [1] and in test [2] was 0.0001 to 10 µM in each case.

For `O=C(O)CNC(=O)N1[C@@H]2CC[C@H]1CN(c1nc(OCC34CCCN3CCC4)nc3cc(-c4cc(O)cc5ccccc45)ccc13)C2` [P-0094, ((1R,5S)-3-(7-(3-hydroxynaphthalen-1-yl)-2-((tetrahydro-1H-pyrrolizin-7a(5H)-yl)methoxy)quinazolin-4-yl)-3,8-diazabicyclo[3.2.1]octane-8-carbonyl)glycine], the IC50 in test [1] and in test [2] was 0.0001 to 10 µM throughout.

For `Oc1cc(-c2ccc3c(N4C[C@H]5CC[C@@H](C4)N5)nc(OCC45CCCCN4CCCC5)nc3c2)c2ccccc2c1` [P-0095, 4-(4-((1R,5S)-3,8-diazabicyclo[3.2.1]octan-3-yl)-2-((octahydro-9aH-quinolizin-9a-yl)methoxy)quinazolin-7-yl)naphthalen-2-ol], the results for the IC50 in test [1] and in test [2] were 0.0001 to 10 µM and 10 to 100 µM, respectively.

With `O=C(NC1CCNC1)N1[C@@H]2CC[C@H]1CN(c1nc(OCC34CCCN3CCC4)nc3cc(-c4cc(O)cc5ccccc45)ccc13)C2` (stereo partly drawn) [P-0097, (1R,5S)-3-(7-(3-hydroxynaphthalen-1-yl)-2-((tetrahydro-1H-pyrrolizin-7a(5H)-yl)methoxy)quinazolin-4-yl)-N-(pyrrolidin-3-yl)-3,8-diazabicyclo[3.2.1]octane-8-carboxamide], the IC50 in test [1] and in test [2] was 0.0001 to 10 µM each time.

Take `O=C(OC1CCOC1)N1[C@@H]2CC[C@H]1CN(c1nc(OCC34CCCN3CCC4)nc3cc(-c4cc(O)cc5ccccc45)ccc13)C2` (stereo partly drawn) [P-0098, Tetrahydrofuran-3-yl (1R,5S)-3-(7-(3-hydroxynaphthalen-1-yl)-2-((tetrahydro-1H-pyrrolizin-7a(5H)-yl)methoxy)quinazolin-4-yl)-3,8-diazabicyclo[3.2.1]octane-8-carboxylate]: the half-inhibitory concentration (IC50) in test [1] and in test [2] was 0.0001 to 10 µM each time.

For the molecule `Cc1ccc2[nH]ncc2c1-c1ccc2c(N3C[C@H]4CC[C@@H](C3)N4)nc(OCC34CCCN3CCC4)nc2c1F` [P-0101, 4-((1R,5S)-3,8-diazabicyclo[3.2.1]octan-3-yl)-8-fluoro-7-(5-methyl-1H-indazol-4-yl)-2-((tetrahydro-1H-pyrrolizin-7a(5H)-yl)methoxy)quinazoline], the IC50 in test [1] lay within 0.0001 to 10 µM; in test [2], 10 to 100 µM.

In the case of `CN1CCC[C@H]1COc1nc(N2C[C@H]3CC[C@@H](C2)N3C(=O)CO)c2ccc(-c3cc(O)cc4ccccc34)c(F)c2n1` [P-0104, 1-((1R,5S)-3-(8-fluoro-7-(3-hydroxynaphthalen-1-yl)-2-(((S)-1-methylpyrrolidin-2-yl)methoxy)quinazolin-4-yl)-3,8-diazabicyclo[3.2.1]octan-8-yl)-2-hydroxyethan-1-one], the half-maximal inhibitory concentration (IC50) in test [1] and in test [2] was 0.0001 to 10 µM in each case.

`CN1CCC[C@H]1COc1nc(N2C[C@H]3CC[C@@H](C2)N3C(=O)CCS(N)(=O)=O)c2ccc(-c3cc(O)cc4ccccc34)c(F)c2n1` [P-0105, 3-((1R,5S)-3-(8-fluoro-7-(3-hydroxynaphthalen-1-yl)-2-(((S)-1-methylpyrrolidin-2-yl)methoxy)quinazolin-4-yl)-3,8-diazabicyclo[3.2.1]octan-8-yl)-3-oxopropane-1-sulfonamide]: the 50% inhibitory concentration (IC50) in test [1] and in test [2] was 0.0001 to 10 µM each time.

For the molecule `CN1CCC[C@H]1COc1nc(N2C[C@H]3CC[C@@H](C2)N3C(=O)c2n[nH]c(=O)[nH]2)c2ccc(-c3cc(O)cc4ccccc34)c(F)c2n1` [P-0107, 5-((1R,5S)-3-(8-fluoro-7-(3-hydroxynaphthalen-1-yl)-2-(((S)-1-methylpyrrolidin-2-yl)methoxy)quinazolin-4-yl)-3,8-diazabicyclo[3.2.1]octane-8-carbonyl)-2,4-dihydro-3H-1,2,4-triazol-3-one], the IC50 in test [1] and in test [2] was 0.0001 to 10 µM each time.

On to `O=C(c1c[nH]c(=O)[nH]c1=O)N1[C@@H]2CC[C@H]1CN(c1nc(OCC34CCCN3CCC4)nc3cc(-c4cc(O)cc5ccccc45)ccc13)C2` [P-0108, 5-((1R,5S)-3-(7-(3-hydroxynaphthalen-1-yl)-2-((tetrahydro-1H-pyrrolizin-7a(5H)-yl)methoxy)quinazolin-4-yl)-3,8-diazabicyclo[3.2.1]octane-8-carbonyl)pyrimidine-2,4(1H,3H)-dione], for which the IC50 in test [1] and in test [2] was 0.0001 to 10 µM each time.
